{"source": "paper PMC5659136", "about": "“Peptide mimetics of immunoglobulin A (IgA) and FcαRI block IgA‐induced human neutrophil activation and migration” (European Journal of Immunology, 2017)", "key": {"[1]": {"system": "neutrophils", "experiment": "In vitro neutrophil migration to IgA-coated beads", "assay_type": "cell-based, human", "conditions": "fluorimeter; for block of IgA-induced neutrophil migration (in words): oxidated or small cyclic peptides, 3 independent experiments in triplicates, Supporting Information Fig. 2", "experimental": "Figure 3 Peptide mimetics block IgA‐induced migration in vitro. Percentage of migration of fluorescently labelled neutrophils to IgA‐coated beads, either in the presence or absence of peptide mimetics. The number of migrated neutrophils was determined with a fluorimeter. Neutrophil migration to IgA was normalized to 100% (dotted line). Neutrophils or beads were pre‐incubated with (A) linear or (B) cyclic peptides mimicking FcαRI‐sequences (white bars) or IgA‐sequences (black bars). Data are representative of three independent experiments, performed in triplicates. Mean ± SD is shown. Statistical analysis: ANOVA *p< 0.05, **p < 0.01.\n(§1) In vitro migration assays were performed as previously described 4. All experiments were performed in triplo. Migration towards IL‐8 (30 ng/mL) was measured after pre‐incubating neutrophils with peptides (1 μg/mL) or anti‐IL‐8 blocking antibody (10 μg/mL, Pharmingen).\nSupporting Information Figure 2 […]\nPercentage of migration of fluorescently labelled neutrophil to IgA-coated beads, either in the presence or absence of peptide mimetics. The number of migrated neutrophils was determined with a fluorimeter. Neutrophil migration to IgA was normalized to 100% (dotted line). Neutrophils or beads were pre-incubated with (A) oxidated or (B) small cyclic peptides mimicking FcαRI-sequences (white bars) or IgA-sequences (black bars). Data are representative of 3 independent experiments, performed in triplicates. Mean ± SD of one representative experiment is shown. Statistical analysis: ANOVA"}, "[2]": {"system": "neutrophils", "experiment": "Ex vivo human skin migration assay (IgA-coated beads injected in the dermis)", "assay_type": "cell-based", "conditions": "full thickness human skin grafts; peptide 1 μg/mL, pre-incubation 20 min, 4°C; incubated overnight (24 h) at 37°C; fluorescence microscopy; three independent experiments in duplicate; Fig. 4", "source_text": "To mimic blocking of neutrophil migration toward aberrant IgA‐antigen complexes in the skin, an ex vivo migration assay was established. […] No influx toward BSA‐coated beads was observed, whereas massive influx of neutrophils toward the injected IgA‐coated beads was observed (Fig 4A).\nFigure 4 Peptide mimetics block neutrophil migration and penetrate the dermis in an ex vivo human skin model. Migration of green‐fluorescent neutrophils to BSA‐ (left panel) or IgA‐ (right panel) coated beads (indicated with circles) in the dermis of ex vivo skin explants (A). Migration of green‐fluorescent neutrophils to IgA‐coated beads (indicated with circles) after pre‐incubation with non‐blocking peptide FcαRI9‐ox (B), linear peptides (C) or cyclic CLIPS‐peptides (D). Images are representative of three independent experiments, performed in duplicate. Scale bar = 250 μm. Images are 10× magnified.\nFor ex vivo human skin migration assays, full thickness mammary skin grafts (epidermis and dermis) were placed in an ex vivo tissue incubation chamber with the dermis face up 6, 49. IgA‐coated beads were pre‐incubated with FcαRI‐peptides (1 μg/mL, 20 min, 4°C) and injected intracutaneously via the dermis. BSA‐coated beads were used for control. Next, PKH‐67 labeled neutrophils (4 × 10^6 cells/well) were added on the dermis. Alternatively, IgA‐coated beads were injected intracutaneously and PKH‐67 labeled neutrophils (4 × 10^6 cells/well) that were pre‐incubated with IgA‐peptides (1 μg/mL, 20 min, 4°C) were added onto the dermis. Cells were supplemented with IFN‐γ to prevent early apoptosis (300 units/mL; Boehringer Ingelheim, Ingelheim am Rhein, Germany). Skin was incubated overnight at 37°C, after which biopsies of the injected skin were taken and snap frozen. Cryosections of 6 μm were analysed with a Nikon eclipse e800 (Nikon instruments Europe BV, Amsterdam, The Netherlands)."}, "[3]": {"system": "neutrophils", "experiment": "IL-8 induced chemotaxis of neutrophils", "assay_type": "cell-based, human", "conditions": "IL-8 30 ng/mL; neutrophils pre-incubated with peptides 1 μg/mL; fluorimeter; three times in triplo; Supporting Information Fig. 3", "experimental": "as §1\nSupporting Information Figure 3 […]\nmedium IL-8anti-IL-8IgA1-linFcĮRI1-linFcĮRI9-ox\nNumber of fluorescently labelled neutrophils which migrated to IL-8 in a chemotaxis chamber, either in the presence or absence of peptide mimetics. The number of migrated neutrophils was determined with a fluorimeter. Neutrophil migration to IL-8 is indicated with a dotted line.\nMedium and blocking IL-8 antibody (anti-IL-8) were used as controls. Experiments were performed three times in triplo. Mean ± SD of one representative experiments in triplo is shown.\nStatistical analysis: ANOVA"}, "[4]": {"system": "IgA binding to FcαRI (on neutrophils)", "experiment": "Ligand binding assay: neutrophil binding to IgA-coated plates", "assay_type": "cell-based", "conditions": "peptide 1 μg/mL, pre-incubation 20 min, 4°C, calcein labeled human neutrophils 2.5 × 10^5 cells/well, 37°C, fluorimeter, three independent experiments in triplicates, Fig. 1", "experimental": "Figure 1 Peptide mimetics inhibit IgA binding to FcαRI. Percentage of ligand binding between IgA and FcαRI (on neutrophils), either in the presence or absence of peptide mimetics. Fluorescently labelled human neutrophils, isolated from blood, were added to IgA‐coated plates, and the number of neutrophils attaching to the plate was measured with a fluorimeter. IgA binding to FcαRI was normalized to 100% (indicated with dotted line). Neutrophils or plates were pre‐incubated with either linear peptides (A) or cyclic CLIPS‐peptides (B) mimicking FcαRI‐sequences (white bars) or IgA‐sequences (black bars). Data are representative of three independent experiments, performed in triplicates. Mean is shown, error bars refer to SD (n = 3). Statistical analysis: ANOVA*p< 0.05, **p < 0.01.\nNeutrophils were isolated from heparinized peripheral human blood from healthy donors after informed consent was given, using standard Lymphoprep (Axis‐shield, Dundee, Scotland) density gradient centrifugation. […]\nPlates (Nunc‐ImmunoMaxiSorp™, Roskilde, Denmark) were coated with IgA, or BSA (as control) (10 μg/mL, 3 h, 37°C), washed and pre‐incubated with FcαRI‐peptides (1 μg/mL, 20 min, 4°C). […] Attached cells were lysed and fluorescence of supernatant was measured with a fluorimeter (485 nm excitation/520 nm emission filters; Fluostar Galaxy, BMG Labtechnologies, Offenburg, Germany), as measure of binding. […]"}}, "note": "Positions of bridges follow the written chain, without caps; N, C: chain ends. No end group written: not given here."}
{"substance": "CEALPLAFTCKT (also: sidechain bridge or staple (positions not given here)) [IgA2‐CLIPS]", "values": [{"measurement": "block of IgA-induced neutrophil migration (in words)", "setting": "[1]", "value": "do not block"}]}
{"substance": "CHYRFRC (also: sidechain bridge or staple (positions not given here)) [FcαRI3‐CLIPS]", "values": [{"measurement": "block of IgA-induced neutrophil migration (in words)", "setting": "[1]", "value": "do not block"}]}
{"substance": "GRYQAQCRIGHYRFCYSD (disulfide 7-15 (inferred)) [FcαRI9‐ox]", "values": [{"measurement": "block of IgA-induced neutrophil migration (in words)", "setting": "[1]", "value": "do not block"}, {"measurement": "neutrophil migration to IgA-coated beads in ex vivo human skin", "setting": "[2]", "value": "did not inhibit"}, {"measurement": "effect on IL-8 induced chemotaxis", "setting": "[3]", "value": "do not block"}]}
{"substance": "RYQAQCRIGHYRFC (disulfide 6-14 (inferred)) [FcαRI6‐ox]", "values": [{"measurement": "block of IgA-induced neutrophil migration (in words)", "setting": "[1]", "value": "do not block"}]}
{"substance": "SCEALPLAFTCKT (also: sidechain bridge or staple (positions not given here)) [IgA3‐CLIPS]", "values": [{"measurement": "block of IgA-induced neutrophil migration (in words)", "setting": "[1]", "value": "do not block"}]}
{"substance": "SSCVGHEALPLAFTCKT (also: sidechain bridge or staple (positions not given here)) [IgA7‐CLIPS]", "values": [{"measurement": "neutrophil migration to IgA-coated beads in ex vivo human skin", "setting": "[2]", "value": "fully abrogated"}]}
{"substance": "SSCVGHEALPLAFTCKT (disulfide 3-15 (inferred)) [IgA7‐ox]", "values": [{"measurement": "block of IgA-induced neutrophil migration (in words)", "setting": "[1]", "value": "do not block"}]}
{"substance": "SSMCGHEALPLAFCQKT (disulfide 4-14 (inferred)) [IgA6‐ox]", "values": [{"measurement": "block of IgA-induced neutrophil migration (in words)", "setting": "[1]", "value": "do not block"}]}
{"substance": "SSMVGHEALPLAFTQKT [IgA1‐lin]", "values": [{"measurement": "block of neutrophil migration to IgA-coated beads", "setting": "[1]; neutrophils or beads pre-incubated with peptides, three independent experiments in triplicates, Fig. 3", "value": "60–80%"}, {"measurement": "blocking of neutrophil binding to IgA-coated wells", "setting": "[4]", "value": "approximately 50%"}, {"measurement": "neutrophil migration to IgA-coated beads in ex vivo human skin", "setting": "[2]", "value": "completely blocked"}, {"measurement": "effect on IL-8 induced chemotaxis", "setting": "[3]", "value": "do not block"}]}
{"substance": "YQACHYRFRC (also: sidechain bridge or staple (positions not given here)) [FcαRI5‐CLIPS]", "values": [{"measurement": "block of IgA-induced neutrophil migration (in words)", "setting": "[1]", "value": "do not block"}]}
